Four compounds from paper PMC7433010, “Exploration of multi‐target effects of 3‐benzoyl‐5‐hydroxychromen‐2‐one in Alzheimer’s disease cell and mouse models” (Aging Cell, 2020) can be followed below.

Data set [1] addresses T1, ΔK280 TauRD‐DsRed (Homo sapiens, UniProt P10636, DEL597-597).
T1 construct: containing residues 244–372 of the full‐length 4R2N Tau441; expressed in transfected cells; host or cells: Tet-On 293 cells, doxycycline-induced (pcDNA5/FRT/TO/TauRD-DsRed)
Briefly: ∆K280 TauRD‐DsRed fluorescence assay (Tau misfolding) in 293 cells. The data set is classed as cell-based. The conditions noted are these: 3 days. From the text:
In ∆K280 TauRD‐DsRed 293 cells, a proaggregant (ΔK280) Tau repeat domain (TauRD) containing residues 244–372 of the full‐length 4R2N Tau441 was fused in‐frame with DsRed fluorophore. Compared to the wild‐type TauRD, the poorly folded ΔK280 TauRD formed aggregates, which adversely affected the folding of fused DsRed and thus decreased DsRed fluorescence, as also evidenced by increase in thioflavin S fluorescence emission (Chang et al., 2017). Thioflavin S is a reporter dye for studies of Tau toxicity and pharmacologic prevention in cell model of tauopathy (Pickhardt et al., 2017). It binds to amyloid fibrils but not monomers and gives a distinct increase in fluorescence emission. Inhibition of Tau aggregation may improve DsRed misfolding, leading to increased fluorescence in ΔK280 TauRD‐DsRed‐expressing cells. […] In the following experiments, DsRed fluorescence was measured in wells containing at least 80% viable cells. […]
DsRed fluorescence of proaggregant ∆K280 TauRD-DsRed 293 cells was evaluated to reflect Tau aggregation. […] Thioflavin S images (FITC 543 nm excitation and 593 nm emission) were captured and analyzed as described. In general, 2 × 10^4 cells in each biological replicate were analyzed.
Figure S2. ΔK280 TauRD-DsRed 293 cells. […] DsRed/thioﬂavin S fluorescence, ROS, and caspase 3 activity were assessed on day 5. […] (c) Dose response curves of LM-031 based on DsRed fluorescence measurement. […]

Data set [2] is described as follows: Cytotoxicity by survived cell number in 293 cells expressing ∆K280 TauRD‐DsRed. It is filed as cell-based. The following applies: human; for viability at 3 days, 1 µM: % of cells without treatment; for IC50 at 3 days: 293 cells expressing ∆K280 TauRD‐DsRed for 3 days. An excerpt: In ∆K280 TauRD‐DsRed 293 cells, a proaggregant (ΔK280) Tau repeat domain (TauRD) containing residues 244–372 of the full‐length 4R2N Tau441 was fused in‐frame with DsRed fluorophore. Compared to the wild‐type TauRD, the poorly folded ΔK280 TauRD formed aggregates, which adversely affected the folding of fused DsRed and thus decreased DsRed fluorescence, as also evidenced by increase in thioflavin S fluorescence emission (Chang et al., 2017). Thioflavin S is a reporter dye for studies of Tau toxicity and pharmacologic prevention in cell model of tauopathy (Pickhardt et al., 2017). It binds to amyloid fibrils but not monomers and gives a distinct increase in fluorescence emission. Inhibition of Tau aggregation may improve DsRed misfolding, leading to increased fluorescence in ΔK280 TauRD‐DsRed‐expressing cells. Utilizing the established Tet‐on ΔK280 TauRD‐DsRed 293 cells (Chang et al., 2016), licochalcone A and LM compounds were tested for effects of reducing Tau misfolding and anti‐oxidation (Figure S2a). Congo red was included for comparison. […] In the following experiments, DsRed fluorescence was measured in wells containing at least 80% viable cells. […] Due to the features of their effectiveness and less cytotoxicity, licochalcone A (1 μM) and LM‐031 (1 μM) were chosen as the candidate compounds for the following experiments. […] Representative DsRed and thioflavin S fluorescent images of ∆K280 TauRD‐DsRed‐expressing cells untreated or treated with congo red (10 µM), licochalcone A (1 µM), or LM‐031 (1 µM) are shown in Figure S2d.
DsRed fluorescence of proaggregant ∆K280 TauRD-DsRed 293 cells was evaluated to reflect Tau aggregation. On day 1, cells were seeded on a 96-well plate in a density of 0.8 × 10^4 cells/well. […] On the fifth day, the cells were stained with Hoechst 33342 (0.1 µg/ml; Sigma-Aldrich) for 30 min to identify total cell number; DsRed fluorescence images (543 nm excitation and 593 nm emission) were automatically captured by using the ImageXpressMICRO high-content imaging system (Molecular Devices, Sunnyvale, CA, USA) and analyzed using MetaXpress image acquisition and analysis software (Molecular Devices). In addition, the cells were fixed with paraformaldehyde (4% in PBS) for 15 minutes, permeabilized with methanol (80%) for 6 minutes at -20°C, incubated with thioflavin S (0.02%; Sigma-Aldrich) and 4’,6-diamidino-2-phenylindole (DAPI) (0.1 μg/ml; Sigma-Aldrich) for 5 minutes, and washed in ethanol (50%). Thioflavin S images ([…]) were captured and analyzed as described. In general, 2 × 10^4 cells in each biological replicate were analyzed.
Figure S2. ΔK280 TauRD-DsRed 293 cells. (a) Experimental flow chart. Cells were plated on day 1. On day 2, the cells were treated with congo red or test compounds for 8 h; addition of doxycycline (Dox; 1 µg/ml) followed. DsRed/thioﬂavin S fluorescence, ROS, and caspase 3 activity were assessed on day 5. (b) Cytotoxicity of the test compounds against 293 cells expressing ∆K280 TauRD-DsRed for 3 days using the survived cell number (n = 3). IC50 values are listed. (c) Dose response curves of LM-031 based on DsRed fluorescence measurement. (d) Fluorescent images of ΔK280 TauRD-DsRed 293 cells untreated or treated with congo red (10 µM), licochalcone A (1 µM), or LM-031 (1 µM). Nuclei were counterstained with Hoechst 33342 (blue), and merged DsRed and Hoechst 33342 signals were shown. In addition, tau aggregation was monitored by staining with thioﬂavin S (green).

[3] abbreviates: Tet-on ∆K280 TauRD-DsRed 293 cells (expression induced), ∆K280 TauRD‐DsRed‐expressing 293 cells.

T1 sequence (P10636 with tags, fused parts or gaps isoform P10636-8 DEL280-280): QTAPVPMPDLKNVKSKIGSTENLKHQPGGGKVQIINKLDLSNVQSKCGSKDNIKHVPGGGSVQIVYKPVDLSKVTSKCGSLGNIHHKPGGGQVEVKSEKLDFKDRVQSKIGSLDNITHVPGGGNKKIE

One may read the viability as the share of living cells, or the viability signal relative to a control. By IC50 is commonly meant the concentration needed to halve the response being measured. Read a high IC50 as lower potency. Turning to `C=CC(C)(C)c1cc(/C=C/C(=O)c2ccc(O)cc2)c(OC)cc1O` [licochalcone A, reference compound], the “∆K280 TauRD‐DsRed fluorescence” value in data set [1] (1 µM, untreated cells = 100%) came to 105%. The compound also gave a viability at 3 days, 1 µM in data set [2] (setting [3]) of 94 to 97%. In addition, it took 5.9 µM to reach half-maximal inhibition in data set [2] (IC50 at 3 days).

In data set [2], `COc1ccc(C(=O)/C=C/c2cc(Br)ccc2O)cc1` [LM‐004] displayed a half-maximal inhibitory concentration (IC50) at 3 days of 5 µM. This lies in the single-digit micromolar range.

Regarding `Nc1c(/N=N/c2ccc(-c3ccc(/N=N/c4cc(S(=O)(=O)O)c5ccccc5c4N)cc3)cc2)cc(S(=O)(=O)O)c2ccccc12` [congo red, reference compound], the “∆K280 TauRD‐DsRed fluorescence” value in data set [1] (10 µM, no treatment = 100%) is 108%. Moreover, in data set [2], the IC50 at 3 days is 36.9 µM.

`O=C(c1ccccc1)c1cc2c(O)cccc2oc1=O` [LM‐031, 3‐benzoyl‐5‐hydroxychromen‐2‐one]: the viability at 3 days, 1 µM in data set [2] (setting [3]) was in the range of 94 to 97%. Further, the viability at 3 days, 10 µM in data set [2] (Tet-on ∆K280 TauRD-DsRed 293 cells (expression induced), 10 μM, ∆K280 TauRD‐DsRed‐expressing 293 cells) was 91%. The compound also showed a half-maximal inhibitory concentration (IC50) at 3 days in data set [2] of 56.6 µM.
